# From the supplement of paper PMC11208160
# Assay: recombinant barcode read abundance after kanamycin selection (control-corrected) (log10(CPM+1)); higher = more efficient recombination; sequences stand for … in AGTGCAGAGAAAATCGGCCAGTTTTCTCTGCCTGCAGTCCGCATGCCGT…AGATTTATGCAGCGGACTGCCTTTCTCCCAAAGTGATAAACCGGACAGTATCATGGACCGGTTTTCCCGGTAATCCGTATTTGCAAGGTTGGTTTCACT; site = the 11-nt target
# Procedure, shortened: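 Recombination efficiency in this pooled E. coli screen uses counts per million of barcodes at recombinant junctions, averaged and corrected against the control. The reported form is log10(CPM+1). Two replicates were plated on chloramphenicol/ampicillin LB agar as control and two on chloramphenicol/ampicillin/kanamycin with 0.1 mM IPTG.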
# 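Further: IS621 recombinase and bridge RNA in Escherichia coli cells.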
row,Sequence,recombinant barcode read abundance (log10)
1,CTACAAGCTTGGGTTCTAACCTGTTGCCT (site CTACAAGCTAG),1.34
2,CTACAAGCTTGGGTTCTAACCTGTTGCCT (site CTCCAAGCTAG),0.279
3,CTACAAGCTTGGGTTCTAACCTGTTGCCT (site CTGCAAGCTAG),0.155
4,CTACAAGCTTGGGTTCTAACCTGTTGCCT (site CTTCAAGCTAG),0.177
5,CTACAATCTTGGGTTCTAACCTGTTGCCT (site ATACAATCTAG),0.0309
6,CTACAATCTTGGGTTCTAACCTGTTGCCT (site CTACAATCTAG),0.979
7,CTACAATCTTGGGTTCTAACCTGTTGCCT (site GTACAATCTAG),0.0211
8,CTACAATCTTGGGTTCTAACCTGTTGCCT (site TTACAATCTAG),0.0283
9,CTACACACTTGGGTTCTAACCTGTTGCTC (site CTACACACTGA),1.64
10,CTACACACTTGGGTTCTAACCTGTTGCTC (site CTACACACTTA),0.0402
11,CTACAGACTTGGGTTCTAACCTGTTGCGA (site CTACAGACTAC),0.0546
12,CTACAGACTTGGGTTCTAACCTGTTGCGA (site CTACAGACTCC),1.04
13,CTACAGACTTGGGTTCTAACCTGTTGCGA (site CTACAGACTGC),0.0716
14,CTACAGACTTGGGTTCTAACCTGTTGCGA (site CTACAGACTTC),2.73
15,CTACAGACTTGGGTTCTAACCTGTTGCGC (site CTACAGACTAC),0.253
16,CTACAGACTTGGGTTCTAACCTGTTGCGC (site CTACAGACTCC),0.221
17,CTACAGACTTGGGTTCTAACCTGTTGCGC (site CTACAGACTGC),1.21
18,CTACAGACTTGGGTTCTAACCTGTTGCGC (site CTACAGACTTC),0.503
19,CTACAGACTTGGGTTCTAACCTGTTGCGG (site CTACAGACTAC),0.088
20,CTACAGACTTGGGTTCTAACCTGTTGCGG (site CTACAGACTCC),2.61

row,Sequence,recombinant barcode read abundance (log10)
1,CTACAGACTTGGGTTCTAACCTGTTGCGG (site CTACAGACTGC),0.141
2,CTACAGACTTGGGTTCTAACCTGTTGCGG (site CTACAGACTTC),1.31
3,CTACAGACTTGGGTTCTAACCTGTTGCGT (site CTACAGACTAC),1.81
4,CTACAGACTTGGGTTCTAACCTGTTGCGT (site CTACAGACTCC),0.229
5,CTACAGACTTGGGTTCTAACCTGTTGCGT (site CTACAGACTGC),0.155
6,CTACAGACTTGGGTTCTAACCTGTTGCGT (site CTACAGACTTC),0.238
7,CTACATTCTTGGGTTCTAACCTGTTGCGT (site CTAAATACTAC),0.0752
8,CTACATTCTTGGGTTCTAACCTGTTGCGT (site CTACATTCTAC),1.52
9,CTACGATCTTGGGTTCTAACCTGTTGCAC (site CTACGATCTGT),0.737
10,CTACGATCTTGGGTTCTAACCTGTTGCAC (site CTACGCTCTGT),0.162
11,CTACGATCTTGGGTTCTAACCTGTTGCAC (site CTACGGTCTGT),0.375
12,CTACGATCTTGGGTTCTAACCTGTTGCAC (site CTACGTTCTGT),0.365
13,CTACGCTCTTGGGTTCTAACCTGTTGCGA (site CTACGCTCTTC),1.52
14,CTACGCTCTTGGGTTCTAACCTGTTGCGA (site CTAGGCTCTCC),0.452
15,CTACGGTCTTGGGTTCTAACCTGTTGCAC (site CTACGATCTGT),0.256
16,CTACGGTCTTGGGTTCTAACCTGTTGCAC (site CTACGCTCTGT),0.238
17,CTACGGTCTTGGGTTCTAACCTGTTGCAC (site CTACGGTCTGT),0.404
18,CTACGGTCTTGGGTTCTAACCTGTTGCAC (site CTACGTTCTGT),0.0783
19,CTACGTCCTTGGGTTCTAACCTGTTGCTC (site CTACGTCCTAA),0.191
20,CTACGTCCTTGGGTTCTAACCTGTTGCTC (site CTACGTCCTCA),0.942

row,Sequence,recombinant barcode read abundance (log10)
1,CTACGTCCTTGGGTTCTAACCTGTTGCTC (site CTACGTCCTGA),0.91
2,CTACGTCCTTGGGTTCTAACCTGTTGCTC (site CTACGTCCTTA),0.0289
3,CTACGTTCTTGGGTTCTAACCTGTTGCAC (site CTACGATCTGT),0.0857
4,CTACGTTCTTGGGTTCTAACCTGTTGCAC (site CTACGCTCTGT),0
5,CTACGTTCTTGGGTTCTAACCTGTTGCAC (site CTACGGTCTGT),0.0816
6,CTACGTTCTTGGGTTCTAACCTGTTGCAC (site CTACGTTCTGT),1.1
7,CTACTAGCTTGGGTTCTAACCTGTTGCAG (site CTACTAGCTAT),0.173
8,CTACTAGCTTGGGTTCTAACCTGTTGCAG (site CTACTAGCTCT),2.5
9,CTACTAGCTTGGGTTCTAACCTGTTGCAG (site CTACTAGCTGT),0.0122
10,CTACTAGCTTGGGTTCTAACCTGTTGCAG (site CTACTAGCTTT),0.0541
11,CTACTAGCTTGGGTTCTAACCTGTTGCAT (site CTACTAGCTAT),1.18
12,CTACTAGCTTGGGTTCTAACCTGTTGCAT (site CTACTAGCTCT),0.115
13,CTACTAGCTTGGGTTCTAACCTGTTGCAT (site CTACTAGCTGT),0.167
14,CTACTAGCTTGGGTTCTAACCTGTTGCAT (site CTACTAGCTTT),0.139
15,CTAGAAGCTTGGGTTCTAACCTGTTGCGT (site CTAGAAGCTAC),2.52
16,CTAGAAGCTTGGGTTCTAACCTGTTGCGT (site CTAGGAGCTAC),1.05
17,CTAGACTCTTGGGTTCTAACCTGTTGCAA (site CTAGACTCTAT),0.644
18,CTAGACTCTTGGGTTCTAACCTGTTGCAA (site CTAGACTCTCT),0.287
19,CTAGACTCTTGGGTTCTAACCTGTTGCAA (site CTAGACTCTGT),0.0566
